# In ChEMBL document CHEMBL5042474, “Structure-Guided Discovery of Potent and Selective DYRK1A Inhibitors” (J Med Chem, 2021):
# Experiments:
# [1] = target: T1, Dual specificity tyrosine-phosphorylation-regulated kinase 2 (Homo sapiens, UniProt Q92630); assay: Inhibition of DYRK2 (unknown origin) using Ulight-MBP as substrate and ATP as co-substrate incubated for 40 mins and measured after 1 hr by TR-FRET assay
# T1 sequence (Q92630 whole entry): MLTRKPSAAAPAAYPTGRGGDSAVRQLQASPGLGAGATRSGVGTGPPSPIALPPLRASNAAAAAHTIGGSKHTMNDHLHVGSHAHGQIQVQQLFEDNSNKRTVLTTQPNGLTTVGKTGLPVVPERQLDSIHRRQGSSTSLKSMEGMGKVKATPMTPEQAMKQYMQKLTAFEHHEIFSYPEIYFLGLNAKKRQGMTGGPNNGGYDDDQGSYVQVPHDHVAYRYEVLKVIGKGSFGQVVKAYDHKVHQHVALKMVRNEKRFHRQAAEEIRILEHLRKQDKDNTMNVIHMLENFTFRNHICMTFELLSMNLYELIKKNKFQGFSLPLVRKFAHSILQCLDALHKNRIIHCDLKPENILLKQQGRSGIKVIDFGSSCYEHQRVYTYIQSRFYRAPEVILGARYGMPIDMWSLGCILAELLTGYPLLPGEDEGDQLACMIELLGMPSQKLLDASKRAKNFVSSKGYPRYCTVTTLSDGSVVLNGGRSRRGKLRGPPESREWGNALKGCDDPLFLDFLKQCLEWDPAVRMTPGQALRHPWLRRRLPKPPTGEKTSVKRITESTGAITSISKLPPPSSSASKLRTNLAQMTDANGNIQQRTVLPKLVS
# [2] = Plasma clearance in BALB/c nu/nu mouse at 3 mg/kg, po; format: ADME, organism-based
# [3] = test system: RS4-11; assay: Antitumor activity against human RS4-11 cells xenografted in BALB/c nu/nu mouse assessed as reduction in DYRK1A autophosphorylation of S520 residue at 3.125 mg/kg, po measured after 2 hrs by western blotting analysis relative to control; format: functional; parameters: scale not given: the % may be the effect or the level left
# [4] = test system: RS4-11; assay: Antitumor activity against human RS4-11 cells xenografted in BALB/c nu/nu mouse assessed as reduction in DYRK1A autophosphorylation of S520 residue at 3.125 mg/kg, po measured after 6 hrs by western blotting analysis relative to control; format: functional; parameters: scale not given: the % may be the effect or the level left
# [5] = test system: RS4-11; assay: Antitumor activity against human RS4-11 cells xenografted in BALB/c nu/nu mouse assessed as reduction in DYRK1A autophosphorylation of S520 residue at 6.25 mg/kg, po measured after 2 hrs by western blotting analysis relative to control; format: functional; parameters: scale not given: the % may be the effect or the level left
# [6] = test system: RS4-11; assay: Antitumor activity against human RS4-11 cells xenografted in BALB/c nu/nu mouse assessed as reduction in DYRK1A autophosphorylation of S520 residue at 25 mg/kg, po measured after 6 hrs by western blotting analysis relative to control; format: functional; parameters: scale not given: the % may be the effect or the level left
# [7] = test system: A2780; assay: Antitumour activity against human A2780 cells xenografted in BALB/c nu/nu mouse assessed as reduction in DYRK1A autophosphorylation of S520 residue at 9.375 mg/kg, po measured after 6 hrs by western blotting analysis relative to control; format: functional; parameters: scale not given: the % may be the effect or the level left
# [8] = test system: A2780; assay: Antitumor activity against human A2780 cells xenografted in BALB/c nu/nu mouse assessed as reduction in DYRK1A autophosphorylation of S520 residue at 18.75 mg/kg, po measured after 6 hrs by western blotting analysis relative to control; format: functional; parameters: scale not given: the % may be the effect or the level left
# [9] = test system: A2780; assay: Antitumor activity against human A2780 cells xenografted in BALB/c nu/nu mouse assessed as reduction in DYRK1A autophosphorylation of S520 residue at 37.5 mg/kg, po measured after 2 hrs by western blotting analysis relative to control; format: functional; parameters: scale not given: the % may be the effect or the level left
# [10] = test system: A2780; assay: Antitumor activity against human A2780 cells xenografted in BALB/c […] mouse assessed as reduction in DYRK1A autophosphorylation of S520 residue at 75 mg/kg, po measured after 2 hrs by western blotting analysis relative to control; format: functional; parameters: scale not given: the % may be the effect or the level left
# [11] = test system: A2780; assay: Antitumor activity against human A2780 cells xenografted in Balb/c mouse assessed as inhibition of tumor growth at 9.5 mg/kg, po bid for 14 days relative to control; format: functional; details: 336 h, time 14 day, read-out: TGI
# [12] = test system: A2780; assay: Antitumor activity against human A2780 cells xenografted in Balb/c mouse assessed as inhibition of tumor growth at 37.5 mg/kg, po bid for 14 days relative to control; format: functional; details: 336 h, time 14 day, read-out: TGI
# [13] = test system: A2780; assay: Antitumor activity against human A2780 cells xenografted in Balb/c mouse assessed as inhibition of tumor growth at 75 mg/kg, po bid for 14 days relative to control; format: functional; details: 336 h, time 14 day, read-out: TGI
# [14] = Toxicity in Balb/c nude mouse xenografted with human A2780 cells assessed as decrease in body weight at 4.75 mg/kg, po bid for 14 days relative to control; format: organism-based; parameters: scale not given: the % may be the effect or the level left; details: in vivo, 336 h, time 14 day
# [15] = Toxicity in Balb/c nude mouse xenografted with human A2780 cells assessed as decrease in body weight at 9.5 mg/kg, po bid for 14 days relative to control; format: organism-based; parameters: scale not given: the % may be the effect or the level left; details: in vivo, 336 h, time 14 day
# [16] = test system: A2780; assay: Antitumour activity against human A2780 cells xenografted in mouse assessed as reduction in DYRK1A autophosphorylation of S520 residue at 4.687 mg/kg, po meausred after 6 hrs by western blotting analysis relative to control; format: functional; parameters: scale not given: the % may be the effect or the level left
# [17] = test system: A2780; assay: cells; details: Homo sapiens, A2780, 120 h
# [18] = test system: C-33-A; assay: cells; details: Homo sapiens, 120 h
# [19] = test system: A2780; assay: cells; details: Homo sapiens
# [20] = test system: SK-N-MC; assay: cells; details: Homo sapiens
# [21] = test system: C-33-A; assay: cells; details: Homo sapiens
# [22] = test system: A2780; assay: Antitumour activity against human A2780 cells xenografted in Balb/c mouse assessed as tumor volume T/C at 9.5 mg/kg, po bid for 14 days relative to control; details: time 14 day
# [23] = test system: A2780; assay: Antitumour activity against human A2780 cells xenografted in Balb/c mouse assessed as tumour volume T/C at 37.5 mg/kg, po bid for 14 days relative to control; details: time 14 day
# [24] = target: Dual specificity protein kinase CLK1 (Homo sapiens) (UniProt P49759); assay: Residual activity of CLK1 (unknown origin) at 10 nM using Ulight-MBP as substrate and ATP as co-substrate incubated for 40 mins and measured after 1 hr by TR-FRET assay relative to control; details: time 100.0 min
# Dual specificity protein kinase CLK1 (Homo sapiens), sequence (P49759 whole entry, looked up): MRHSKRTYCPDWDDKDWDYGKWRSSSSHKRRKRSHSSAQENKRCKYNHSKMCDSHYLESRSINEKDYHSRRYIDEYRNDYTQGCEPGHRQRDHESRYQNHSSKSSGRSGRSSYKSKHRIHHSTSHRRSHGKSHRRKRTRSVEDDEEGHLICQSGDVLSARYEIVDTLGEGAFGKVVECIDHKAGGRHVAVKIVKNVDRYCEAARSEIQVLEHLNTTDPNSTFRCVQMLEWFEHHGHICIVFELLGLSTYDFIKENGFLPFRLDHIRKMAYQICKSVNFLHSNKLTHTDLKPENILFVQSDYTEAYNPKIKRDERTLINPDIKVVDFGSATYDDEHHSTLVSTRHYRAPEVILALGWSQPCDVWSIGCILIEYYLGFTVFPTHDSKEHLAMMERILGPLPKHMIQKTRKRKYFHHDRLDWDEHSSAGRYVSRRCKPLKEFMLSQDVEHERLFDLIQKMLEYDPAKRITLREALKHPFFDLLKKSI
# [25] = target: T2, Dual specificity tyrosine-phosphorylation-regulated kinase 2 (Homo sapiens) (UniProt Q92630); assay: Residual activity of DYRK2 (unknown origin) at 10 nM using Ulight-MBP as substrate and ATP as co-substrate incubated for 40 mins and measured after 1 hr by TR-FRET assay relative to control; details: time 100.0 min
# T2 sequence (whole entry): T1 sequence (Q92630 whole entry)
compound,measurement,setting,value
Cc1nc2ccc(-c3cc(N)nc(N)c3)nc2n1C1CC1,IC50,[1],3 nM
same,CL/F,[2],226 mL/min/kg
same,Activity,[3],51%
same,Activity,[4],38%
same,Activity,[5],77%
same,Activity,[6],91%
same,Activity,[7],10%
same,Activity,[8],80%
same,Activity,[9],82%
same,Activity,[10],80%
same,inhibition in vivo at 9.5 mg/kg,[11],28%
same,inhibition in vivo at 37.5 mg/kg,[12],63%
same,inhibition in vivo at 75 mg/kg,[13],92%
same,Activity,[14],1.5%
same,Activity,[15],8.7%
same,Activity,[16],0%
same,IC50,[17],1540 nM
same,IC50,[18],1020 nM
same,IC50,[19],126 nM
same,IC50,[20],77 nM
same,IC50,[21],157 nM
same,T/C,[22],95%
same,T/C,[23],52%
same,residual activity,[24],48%
same,residual activity,[25],1.6%
